{
  "source": "patent US20230235279A1",
  "about": "“AMNIOTIC-LIKE EPITHELIAL CELL GENERATION” (THE BABRAHAM INSTITUTE, priority 2020, published 2023)",
  "type_in_all_cases": "cell-based, human",
  "key": {"naïve hPSC": {"tested_on": "naïve hPSC", "assay": "hALEC differentiation in AP after capacitation in different conditions", "conditions": "3 days capacitation in the named condition, then AP; for hALEC differentiation after capacitation condition: morphology and markers", "method": "(§1) FIGS. 3 (A to I). Signalling requirement for hALEC differentiation: FIG. 3(A) depicts experimental outline; naïve hPSC were capacitated in different conditions for 3 days (2uM XAV939 in N2B27 basal medium (“XAV939”), N2B27 basal medium only (“N2B27”), 1 uM A8301 in N2B27 basal medium (“A8301”), or medium E8 for culturing primed hPSCs (“E8”)), and then differentiated to hALEC in AP media. FIG. 3(B) is whole-well view of cells after hALEC induction stained with fluorescently labelled phalloidin. […] FIGS. 3(F) and (G) show images of cells stained with fluorescently labelled phalloidin and qRT-PCR results, respectively, of hALEC differentiated in the presence of alternative MAPK inhibitors (1 uM PD0325901, or 5 nM, 10 nM or 30 nM Trametinib). FIGS. 3(H) and (I) show images of cells stained with fluorescently labelled phalloidin and qRT-PCR results, respectively, for hALEC differentiated in the presence of alternative TGFb pathway inhibitors (1 uM A8301; 10 or 20 uM SB431542; 1 uM or 5 uM LY2109761; 5 uM or 10uM or 20 uM LY364947).\nWNT inhibition is beneficial but not essential for the formative transition of hPSC, which is rather guided by their autocrine signalling (Rostovskaya et al. Development 2019). We induced formative transition by the range of conditions: (1) WNT inhibitor XAV939 in N2B27 basal medium; (2) simple withdrawal of the factors (PD0325901, Go6983, XAV939, LIF) for naïve hPSC maintenance from the medium and culturing in basal N2B27 conditions; (3) TGFb inhibitor A8301 in N2B27 basal medium; (4) E8 medium containing TGFb and FGF2 for culturing primed hPSC (Chen et al. Nat Methods 2011); all for 3 days, and then applied AP conditions for differentiation (FIG. 3A). […] Therefore, the ability to form hALEC capable of self-assembly into spheroids, is an intrinsic property of hPSC that is established during capacitation, rather than a property that is acquired in response to exogenous WNT inhibition."}, "[1]": {"tested_on": "hPSC after 3-5 days of the capacitation", "assay": "Signalling requirement for hALEC formation (single, joint and alternative MAPK, TGFb, BMP inhibitors)", "conditions": "for efficient formation of 3D bubble-like epithelial structures and upregulation of amnion markers: A8301 only, PD03 only or both (AP); for induction of hALEC by alternative MAPK or TGFb pathway inhibitor: Trametinib 5, 10 or 30 nM, SB431542 10 or 20 uM, LY2109761 1 or 5 uM, LY364947 5, 10 or 20 uM", "method": "as §1\nWe next assessed whether the joint inhibition of the TGFb/Activin/Nodal and MAPK pathways is required for the formation of hALEC. We tested this using hPSC after 3-5 days of the capacitation in independent experiments by supplementing their media with either A8301 only (“A”), PD03 only (“P”), neither of the inhibitors (“none”), or both (“AP”).\nTherefore, hALEC differentiation is induced specifically by inhibition of MAPK and TGFb pathways and not by other effects of PD0325901 and A8301.\nThe formation of cells expressing a subset of amnion markers has been previously reported after treating conventional primed hPSC with the growth factor BMP4 (Shao et al. Nat Mater 2017; Shao et al. Nat Commun 2017; Zheng et al. Nature 2019). However, this finding is at odds with the timing of events that occur during embryo development. In particular, primed hPSC closely resemble late post-implantation epiblast cells just prior to the onset of gastrulation (Nakamura et al. Nature 2016), a developmental stage that occurs in humans at around 11-12dpf (Carnegie stage, CS, 5c), which is several days after the emergence of the amnion in the implanting embryo at 7dpf (CS 5a) (The Virtual Human Embryo Atlas). Therefore, BMP-dependent route of differentiation reported in the aforementioned works can’t explain the mechanism of formation of amnion and amniotic cavity in primate embryos. Nevertheless, we tested whether BMP signalling was required for hALEC differentiation by adding a selective BMP receptor (ALK-2, -3, -6) inhibitor called LDN193189 to the AP-containing media (a combination referred to as “DAP” hereafter)."}, "[2]": {"tested_on": "hPSC at different stages of capacitation", "assay": "Competence window for hALEC differentiation during capacitation (AP or DAP)", "conditions": "hPSC capacitated 8 days, AP medium plus BMP inhibitor", "text": "FIGS. 4 (A to G). A competence window for hALEC differentiation during the formative transition: FIG. 4(A) depicts the experimental outline. hPSC (HNES1 line) were capacitated in XAV939 and analysed for their ability to form hALEC each day of capacitation, by treatment with AP of DAP for 4 days. […] FIG. 4(D) is a qRT-PCR for markers in hALEC differentiated using AP medium after various length of capacitation. FIG. 4(E) depicts the immunofluorescence for markers (OCT4, CDX2 and E-cadherin) during the time course of hALEC differentiation using naïve and partially capacitated HNES1. […] FIG. 4(G) is the flow cytometry analysis.\nTo identify a window during the progression from naïve to primed pluripotency where hPSC have the competence to form amnion, we systematically tested the ability of hPSC at different stages of capacitation to respond to hALEC-inducing cues (FIG. 4A). In these experiments, hALEC differentiation was induced using two alternative media compositions – AP and DAP – in order to assess whether the requirement for BMP pathway activity is altered this window of competence. […] The efficiency of hALEC formation was evaluated visually by their efficiency to form 3D epithelial spheres (FIGS. 4B and 4C), and markers expression (FIG. 4D). […]"}},
  "data": [
    {"smiles": "Cc1cccc(-c2nn(C(=S)Nc3ccccc3)cc2-c2ccnc3ccccc23)n1", "note": "[A8301]", "values": [
      {"measurement": "efficiency of hALEC differentiation after capacitation condition", "setting": "naïve hPSC", "result": "consistently high"},
      {"measurement": "hALEC differentiation after capacitation condition", "setting": "naïve hPSC", "result": "successfully differentiated to hALEC"},
      {"measurement": "efficient formation of 3D bubble-like epithelial structures and upregulation of amnion markers", "setting": "[1]", "result": "Only the cells treated by both inhibitors were able to efficiently form"}
    ]},
    {"smiles": "COc1cc(-c2cc(-c3cccc(O)c3)cnc2N)cc(OC)c1OC", "note": "[K02288]", "values": [
      {"measurement": "extension of the window of competence by alternative BMP inhibitor", "setting": "[2]", "result": "extension of the window of competence was observed"}
    ]},
    {"smiles": "c1ccc2c(-c3cnn4cc(-c5ccc(N6CCNCC6)cc5)cnc34)ccnc2c1", "note": "[LDN193189]", "values": [
      {"measurement": "effect of blocking BMP signalling on hALEC differentiation", "setting": "[1]; added to AP-containing media (DAP)", "result": "did not interfere with hALEC differentiation"}
    ]},
    {"smiles": "c1ccc(-c2[nH]ncc2-c2ccnc3ccccc23)nc1", "note": "[LY364947]", "values": [
      {"measurement": "induction of hALEC by alternative MAPK or TGFb pathway inhibitor", "setting": "[1]", "result": "successful induction of hALEC"}
    ]},
    {"smiles": "c1ccc(-c2nn3c(c2-c2ccnc4cc(OCCN5CCOCC5)ccc24)CCC3)nc1", "note": "[LY2109761]", "values": [
      {"measurement": "induction of hALEC by alternative MAPK or TGFb pathway inhibitor", "setting": "[1]", "result": "successful induction of hALEC"}
    ]},
    {"smiles": "O=C(NOC[C@H](O)CO)c1ccc(F)c(F)c1Nc1ccc(I)cc1F", "note": "[PD03]", "values": [
      {"measurement": "efficient formation of 3D bubble-like epithelial structures and upregulation of amnion markers", "setting": "[1]", "result": "Only the cells treated by both inhibitors were able to efficiently form"}
    ]},
    {"smiles": "NC(=O)c1ccc(-c2nc(-c3ccc4c(c3)OCO4)c(-c3ccccn3)[nH]2)cc1", "note": "[SB431542]", "values": [
      {"measurement": "induction of hALEC by alternative MAPK or TGFb pathway inhibitor", "setting": "[1]", "result": "successful induction of hALEC"}
    ]},
    {"smiles": "Oc1nc(-c2ccc(C(F)(F)F)cc2)nc2c1CSCC2", "note": "[XAV939]", "values": [
      {"measurement": "efficiency of hALEC differentiation after capacitation condition", "setting": "naïve hPSC", "result": "consistently high"},
      {"measurement": "hALEC differentiation after capacitation condition", "setting": "naïve hPSC", "result": "successfully differentiated to hALEC"}
    ]}
  ]
}
